Results published in ChEMBL document CHEMBL1132535, “Design, synthesis, and evaluations of substituted 3-[(3- or 4-carboxyethylpyrrol-2-yl)methylidenyl]indolin-2-ones as inhibitors of VEGF, FGF, and PDGF receptor tyrosine kinases” (J Med Chem, 1999).

Key:
[1] = target: Epidermal growth factor receptor (Homo sapiens, UniProt P00533)
[2] = target: Vascular endothelial growth factor receptor 2 (Homo sapiens, UniProt P35968)
[3] = target: Fibroblast growth factor receptor 1 (Homo sapiens, UniProt P11362); assay: Inhibitory activity against Fibroblast growth factor receptor 1
Fibroblast growth factor receptor 1, sequence (P11362 whole entry): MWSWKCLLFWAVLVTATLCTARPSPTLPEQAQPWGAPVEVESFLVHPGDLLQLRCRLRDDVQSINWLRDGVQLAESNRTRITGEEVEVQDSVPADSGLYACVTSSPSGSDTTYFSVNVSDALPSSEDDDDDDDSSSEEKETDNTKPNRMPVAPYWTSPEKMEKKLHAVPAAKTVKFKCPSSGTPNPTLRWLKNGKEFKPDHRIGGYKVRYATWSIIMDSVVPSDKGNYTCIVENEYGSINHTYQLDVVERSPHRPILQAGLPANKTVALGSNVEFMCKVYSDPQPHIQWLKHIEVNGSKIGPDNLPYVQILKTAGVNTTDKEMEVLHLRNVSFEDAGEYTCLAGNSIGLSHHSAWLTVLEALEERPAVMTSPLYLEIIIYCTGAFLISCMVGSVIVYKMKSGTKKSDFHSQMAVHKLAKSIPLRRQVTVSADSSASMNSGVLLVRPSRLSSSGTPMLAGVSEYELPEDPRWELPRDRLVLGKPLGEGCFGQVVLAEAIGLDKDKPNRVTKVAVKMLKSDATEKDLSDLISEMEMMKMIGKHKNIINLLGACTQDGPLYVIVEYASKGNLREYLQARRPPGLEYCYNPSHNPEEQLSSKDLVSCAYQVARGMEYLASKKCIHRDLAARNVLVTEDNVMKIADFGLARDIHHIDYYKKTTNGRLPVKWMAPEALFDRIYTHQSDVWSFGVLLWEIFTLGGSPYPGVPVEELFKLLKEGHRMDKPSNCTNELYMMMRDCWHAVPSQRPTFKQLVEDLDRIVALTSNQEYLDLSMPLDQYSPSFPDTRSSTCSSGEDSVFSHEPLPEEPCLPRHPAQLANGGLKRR

[4] = target: Platelet-derived growth factor receptor beta (Homo sapiens, UniProt P09619)
Platelet-derived growth factor receptor beta, sequence (P09619 whole entry): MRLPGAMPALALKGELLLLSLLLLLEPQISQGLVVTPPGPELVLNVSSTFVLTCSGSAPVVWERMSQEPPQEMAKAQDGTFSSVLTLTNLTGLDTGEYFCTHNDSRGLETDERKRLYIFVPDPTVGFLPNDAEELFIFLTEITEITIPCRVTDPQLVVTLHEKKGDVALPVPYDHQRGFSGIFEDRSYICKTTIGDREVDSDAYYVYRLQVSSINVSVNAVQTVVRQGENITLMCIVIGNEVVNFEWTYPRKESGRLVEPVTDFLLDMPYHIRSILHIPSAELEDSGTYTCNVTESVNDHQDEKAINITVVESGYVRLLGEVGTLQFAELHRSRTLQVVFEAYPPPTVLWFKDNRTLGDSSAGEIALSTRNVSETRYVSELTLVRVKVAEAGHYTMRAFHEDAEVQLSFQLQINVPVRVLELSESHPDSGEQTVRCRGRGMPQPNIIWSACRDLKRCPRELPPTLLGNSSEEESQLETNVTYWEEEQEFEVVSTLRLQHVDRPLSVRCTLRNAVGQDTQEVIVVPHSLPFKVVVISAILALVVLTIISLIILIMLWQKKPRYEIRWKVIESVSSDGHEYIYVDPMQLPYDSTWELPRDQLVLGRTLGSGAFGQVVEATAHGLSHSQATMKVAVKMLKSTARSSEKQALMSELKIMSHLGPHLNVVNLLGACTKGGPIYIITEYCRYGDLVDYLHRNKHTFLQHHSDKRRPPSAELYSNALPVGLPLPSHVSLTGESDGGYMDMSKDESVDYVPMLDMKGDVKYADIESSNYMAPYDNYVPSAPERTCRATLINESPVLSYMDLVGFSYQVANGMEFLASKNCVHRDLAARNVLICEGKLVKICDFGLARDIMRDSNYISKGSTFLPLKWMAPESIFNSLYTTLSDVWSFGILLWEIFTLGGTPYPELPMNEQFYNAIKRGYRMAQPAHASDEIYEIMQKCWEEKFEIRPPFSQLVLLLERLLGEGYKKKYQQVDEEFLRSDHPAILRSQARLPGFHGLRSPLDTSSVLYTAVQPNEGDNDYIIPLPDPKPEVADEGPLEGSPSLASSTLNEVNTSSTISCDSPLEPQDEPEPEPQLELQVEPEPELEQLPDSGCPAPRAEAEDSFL

Epidermal growth factor receptor, sequence (P00533 whole entry): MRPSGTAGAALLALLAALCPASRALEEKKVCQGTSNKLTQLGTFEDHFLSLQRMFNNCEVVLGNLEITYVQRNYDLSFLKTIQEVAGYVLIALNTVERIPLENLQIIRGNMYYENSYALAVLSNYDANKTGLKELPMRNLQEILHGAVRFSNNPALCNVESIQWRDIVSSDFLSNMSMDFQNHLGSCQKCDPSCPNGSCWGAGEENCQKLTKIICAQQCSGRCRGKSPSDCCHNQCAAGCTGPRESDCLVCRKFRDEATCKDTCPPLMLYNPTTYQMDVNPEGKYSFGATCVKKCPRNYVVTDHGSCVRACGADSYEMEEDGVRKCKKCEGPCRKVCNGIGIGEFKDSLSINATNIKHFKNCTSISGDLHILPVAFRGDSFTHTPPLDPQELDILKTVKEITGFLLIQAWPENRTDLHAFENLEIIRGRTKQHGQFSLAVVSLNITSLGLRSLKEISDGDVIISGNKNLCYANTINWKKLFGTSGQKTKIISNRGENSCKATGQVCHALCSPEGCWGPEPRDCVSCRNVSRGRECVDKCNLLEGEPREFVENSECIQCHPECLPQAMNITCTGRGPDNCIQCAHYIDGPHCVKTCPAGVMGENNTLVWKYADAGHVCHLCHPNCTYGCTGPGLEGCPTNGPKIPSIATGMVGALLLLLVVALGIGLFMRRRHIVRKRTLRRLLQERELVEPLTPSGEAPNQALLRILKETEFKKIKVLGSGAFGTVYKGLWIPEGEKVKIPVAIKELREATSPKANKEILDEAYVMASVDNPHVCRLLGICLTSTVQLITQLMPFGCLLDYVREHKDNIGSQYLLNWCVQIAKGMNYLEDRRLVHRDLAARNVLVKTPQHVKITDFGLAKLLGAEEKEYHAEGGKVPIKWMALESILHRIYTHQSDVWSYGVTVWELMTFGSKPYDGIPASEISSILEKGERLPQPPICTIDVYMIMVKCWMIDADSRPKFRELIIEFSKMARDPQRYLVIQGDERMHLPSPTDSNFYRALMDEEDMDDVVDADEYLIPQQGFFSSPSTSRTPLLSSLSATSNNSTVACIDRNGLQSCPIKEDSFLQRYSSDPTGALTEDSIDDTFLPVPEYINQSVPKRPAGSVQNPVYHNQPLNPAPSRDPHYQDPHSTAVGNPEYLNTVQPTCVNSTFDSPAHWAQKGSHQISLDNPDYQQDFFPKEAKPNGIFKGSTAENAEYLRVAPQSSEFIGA
Vascular endothelial growth factor receptor 2, sequence (P35968 whole entry): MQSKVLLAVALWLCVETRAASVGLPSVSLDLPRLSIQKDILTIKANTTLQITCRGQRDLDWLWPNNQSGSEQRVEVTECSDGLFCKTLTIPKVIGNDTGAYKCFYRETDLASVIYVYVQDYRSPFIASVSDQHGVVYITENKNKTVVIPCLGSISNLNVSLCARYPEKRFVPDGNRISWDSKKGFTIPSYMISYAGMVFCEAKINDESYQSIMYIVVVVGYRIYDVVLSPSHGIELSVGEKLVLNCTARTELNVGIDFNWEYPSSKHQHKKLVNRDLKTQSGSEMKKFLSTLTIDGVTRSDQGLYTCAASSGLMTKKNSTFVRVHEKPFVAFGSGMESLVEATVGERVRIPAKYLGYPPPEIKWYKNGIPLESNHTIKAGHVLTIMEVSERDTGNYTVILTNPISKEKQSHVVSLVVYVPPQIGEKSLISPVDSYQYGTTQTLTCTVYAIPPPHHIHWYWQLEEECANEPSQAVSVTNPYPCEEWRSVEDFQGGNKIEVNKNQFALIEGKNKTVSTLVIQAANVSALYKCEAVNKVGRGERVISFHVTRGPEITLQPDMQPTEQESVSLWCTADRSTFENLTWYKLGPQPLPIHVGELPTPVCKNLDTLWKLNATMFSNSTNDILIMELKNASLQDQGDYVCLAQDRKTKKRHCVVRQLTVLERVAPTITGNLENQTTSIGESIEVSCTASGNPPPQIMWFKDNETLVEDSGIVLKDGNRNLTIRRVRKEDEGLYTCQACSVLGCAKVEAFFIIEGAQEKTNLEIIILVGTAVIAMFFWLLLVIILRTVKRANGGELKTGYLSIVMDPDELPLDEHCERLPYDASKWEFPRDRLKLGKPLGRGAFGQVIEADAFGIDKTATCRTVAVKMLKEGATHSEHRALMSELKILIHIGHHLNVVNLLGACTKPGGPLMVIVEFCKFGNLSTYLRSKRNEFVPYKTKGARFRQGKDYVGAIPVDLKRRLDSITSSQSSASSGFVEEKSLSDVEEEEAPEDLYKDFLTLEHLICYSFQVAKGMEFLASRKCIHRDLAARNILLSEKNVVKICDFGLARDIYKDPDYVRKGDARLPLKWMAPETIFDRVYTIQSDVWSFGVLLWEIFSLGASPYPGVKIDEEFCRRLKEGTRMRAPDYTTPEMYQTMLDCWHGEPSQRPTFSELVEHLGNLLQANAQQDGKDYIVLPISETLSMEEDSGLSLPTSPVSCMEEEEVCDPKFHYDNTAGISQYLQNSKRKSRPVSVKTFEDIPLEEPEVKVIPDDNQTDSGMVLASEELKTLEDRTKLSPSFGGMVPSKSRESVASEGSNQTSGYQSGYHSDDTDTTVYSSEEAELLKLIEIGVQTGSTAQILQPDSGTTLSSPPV

In the case of `COc1ccc(-c2ccc3c(c2)NC(=O)/C3=C\c2[nH]c(C)c(CCC(=O)O)c2C)cc1`, the IC50 [1] is reported as > 100 µM, the IC50 [2] is reported as 0.52 µM and the IC50 [3] is reported as 5.76 µM. It also gave an IC50 [4] of 1 µM.
For `Cc1c[nH]c(/C=C2\C(=O)Nc3cccc(C)c32)c1CCC(=O)O`, the IC50 [1] was > 100 µM.
With `Cc1[nH]c(/C=C2\C(=O)Nc3ccc(Br)cc32)c(C)c1CCC(=O)O` the IC50 [1] was > 100 µM, the IC50 [2] was 1.73 µM and the IC50 [3] was 2.05 µM. For the same molecule, the IC50 [4] was 0.06 µM.
With `COc1ccc2c(c1)NC(=O)/C2=C\c1[nH]cc(CCC(=O)O)c1C` the IC50 [1] was > 100 µM, the IC50 [2] was 1.35 µM and the IC50 [3] was 3.89 µM. The IC50 [4] was 0.14 µM.
In the case of `COc1cccc(-c2ccc3c(c2)NC(=O)/C3=C\c2[nH]c(C)c(CCC(=O)O)c2C)c1`, the IC50 [1] is reported as > 100 µM, the IC50 [2] is reported as 0.3 µM and the IC50 [3] is reported as 1.4 µM. For the same molecule, the IC50 [4] was 0.1 µM.
For `Cc1c[nH]c(/C=C2\C(=O)Nc3ccc(Br)cc32)c1CCC(=O)O`, the IC50 [1] was > 100 µM.
`Cc1c[nH]c(/C=C2\C(=O)Nc3ccccc32)c1CCC(=O)O` was tested, and the IC50 [1] was > 100 µM, the IC50 [2] was 0.02 µM and the IC50 [3] was 0.03 µM. For the same molecule, the IC50 [4] was 0.51 µM.
With `Cc1[nH]c(/C=C2\C(=O)Nc3cc(-c4ccccc4)ccc32)c(C)c1CCC(=O)O` the IC50 [1] was > 100 µM, the IC50 [2] was 0.14 µM and the IC50 [3] was 2.29 µM. It also gave an IC50 [4] of 0.01 µM.
With `Cc1[nH]c(/C=C2\C(=O)Nc3ccc(C(=O)O)cc32)c(C)c1CCC(=O)O` the IC50 [1] was > 100 µM, the IC50 [2] was 0.07 µM and the IC50 [3] was 0.28 µM. For the same molecule, the IC50 [4] was 1.21 µM.
For `Cc1c(CCC(=O)O)c[nH]c1/C=C1\C(=O)Nc2ccc(S(N)(=O)=O)cc21`, the IC50 [1] was > 100 µM, the IC50 [2] was 0.92 µM and the IC50 [3] was 0.46 µM. It also gave an IC50 [4] of 5.98 µM.
Work on `Cc1[nH]c(/C=C2\C(=O)Nc3ccccc32)c(C)c1CCC(=O)O` [ORANTINIB] yielded an IC50 [4] of 0.06 µM.
With `Cc1c(CCC(=O)O)c[nH]c1/C=C1\C(=O)Nc2ccccc21` the IC50 [1] was > 100 µM, the IC50 [2] was 2.14 µM and the IC50 [3] was 3.68 µM. The IC50 [4] was 0.14 µM.
For `COc1ccccc1-c1ccc2c(c1)NC(=O)/C2=C\c1[nH]c(C)c(CCC(=O)O)c1C`, the IC50 [1] was > 100 µM, the IC50 [2] was 4.37 µM and the IC50 [3] was 7.33 µM. It also gave an IC50 [4] of 2.22 µM.
In the case of `Cc1c(CCC(=O)O)c[nH]c1/C=C1\C(=O)Nc2cc(-c3ccccc3)ccc21`, the IC50 [1] is reported as > 100 µM, the IC50 [2] is reported as 0.3 µM and the IC50 [3] is reported as 1.05 µM. For the same molecule, the IC50 [4] was 0.16 µM.
For `COc1ccc2c(c1)NC(=O)/C2=C\c1[nH]c(C)c(CCC(=O)O)c1C`, the IC50 [1] was > 100 µM, the IC50 [2] was 8.29 µM and the IC50 [3] was 5.4 µM. It also gave an IC50 [4] of 0.55 µM.
With `COc1cccc(-c2ccc3c(c2)NC(=O)/C3=C\c2[nH]cc(C)c2CCC(=O)O)c1` the IC50 [1] was > 100 µM, the IC50 [3] was 1.2 µM and the IC50 [4] was 0.45 µM.
With `Cc1c(CCC(=O)O)c[nH]c1/C=C1\C(=O)Nc2ccc(C(=O)O)cc21` the IC50 [1] was > 100 µM, the IC50 [2] was 0.24 µM and the IC50 [3] was 0.77 µM. It also gave an IC50 [4] of 4.19 µM.
`COc1ccccc1-c1ccc2c(c1)NC(=O)/C2=C\c1[nH]cc(CCC(=O)O)c1C` was tested, and the IC50 [1] was > 100 µM, the IC50 [2] was 1.47 µM and the IC50 [3] was 2.13 µM. It also gave an IC50 [4] of 1.42 µM.
With `COc1cccc(-c2ccc3c(c2)NC(=O)/C3=C\c2[nH]cc(CCC(=O)O)c2C)c1` the IC50 [1] was > 100 µM, the IC50 [2] was 0.09 µM and the IC50 [3] was 0.36 µM. For the same molecule, the IC50 [4] was 0.17 µM.
`COc1ccc(-c2ccc3c(c2)NC(=O)/C3=C\c2[nH]cc(CCC(=O)O)c2C)cc1` was tested, and the IC50 [1] was > 100 µM, the IC50 [2] was 0.45 µM and the IC50 [3] was 1.54 µM. It also gave an IC50 [4] of 3.08 µM.
Molecule `Cc1[nH]c(/C=C2\C(=O)Nc3ccc(S(N)(=O)=O)cc32)c(C)c1CCC(=O)O` has an IC50 [2] of 1.26 µM, an IC50 [3] of 0.28 µM and an IC50 [4] of 1.53 µM.
For `CCOc1cccc(-c2ccc3c(c2)NC(=O)/C3=C\c2[nH]cc(C)c2CCC(=O)O)c1`, the IC50 [1] was > 100 µM and the IC50 [3] was 4.5 µM.
